Test results taken from patent publication US9096524B2, “Anthelmintic agents and their use” (Intervet International B.V., priority 2009, dated 2015).
Like-named read-outs stand apart in the source and are kept apart here.

Experiments:
Haemonchus contortus = test: Efficacy against Haemonchus contortus in jirds; assay type: in vivo, jirds (Meriones unguiculatus); details: 72 h, read-out: % Reduction in H.
Protocol: Anthelmintic effects of compounds of this invention were tested in vivo using Haemonchus contuortus in jirds (Meriones unguiculatus). The jirds were orally infected with approximately 750-3,000 third-stage larvae of Haemonchus contortus. Ten days after infection, the jirds in the treatment groups were treated once orally or subcutaneously at a dose of 2, 10, and/or 50 mg per kg bodyweight. Three days after treatment, the jirds were necropsied, and the larvae burden in the stomach is determined. The efficacy is defined as the reduction of the mean larvae count in the jirds of the treatment groups in comparison to the infected jirds in the untreated negative control group.

[1] = tested on: A. galli (intestinal roundworm of chicken) larval stage 3; O. dentatum (nodular worm of swine) larval stages 3 and 4; test: Activity against Ascaridia galli and Oesophagostomum dentatum larvae in vitro (minimum effective concentration); assay type: cell-based
[2] = read-out: MEC (minimum effective concentration) against one or more of the tested nematodes, in vitro, one or more of A. galli L3, O. dentatum L3, L4, threshold 1 μM
[3] = read-out: MEC (minimum effective concentration) against one or more of the tested nematodes, in vitro, one or more of A. galli L3, O. dentatum L3, L4, threshold 7 μM
[4] = read-out: MEC (minimum effective concentration) against two or more of the tested nematodes, in vitro, two or more of A. galli L3, O. dentatum L3, L4, threshold 1 μM
[5] = jirds, 10 mg/kg, oral, single treatment, larvae burden in stomach 3 days after treatment
[6] = sc, jirds, 10 mg/kg, subcutaneous, single treatment, larvae burden in stomach 3 days after treatment
[7] = in vitro, one or more of A. galli L3, O. dentatum L3, L4, threshold 1 μM, read-out: MEC (minimum effective concentration) against one or more of the tested nematodes
[8] = in vitro, one or more of A. galli L3, O. dentatum L3, L4, threshold 7 μM, read-out: MEC (minimum effective concentration) against one or more of the tested nematodes
[9] = in vitro, two or more of A. galli L3, O. dentatum L3, L4, threshold 1 μM, read-out: MEC (minimum effective concentration) against two or more of the tested nematodes
[10] = jirds, 50 mg/kg, oral, single treatment, larvae burden in stomach 3 days after treatment
[11] = sc, jirds, 50 mg/kg, subcutaneous, single treatment, larvae burden in stomach 3 days after treatment

| SMILES | inhibition in vivo at 50 mg/kg (Haemonchus contortus; po) | inhibition in vivo at 50 mg/kg (Haemonchus contortus; sc) | minimal effective concentration [1, 2] | minimal effective concentration [1, 3] | minimal effective concentration [1, 4] | minimal effective concentration [1, 9] | also measured |
| --- | --- | --- | --- | --- | --- | --- | --- |
| CC(C)COc1ccc(N2CCN(CCC(=O)N3CCC(Nc4ccc([N+](=O)[O-])c(C(F)(F)F)c4)CC3)CC2)cc1 [Example 26, 3-[4-(4-isobutoxy-phenyl)-piperazin-1-yl]-1-[4-(4-nitro-3-trifluoromethyl-phenylamino)-piperidin-1-yl]-propan-1-one] | 64% | 91% | < 1 µM | < 7 µM | < 1 µM | – | – |
| O=C(CCN1CCC(OCc2ccc(C(F)(F)F)cc2)CC1)N1CCC(Nc2ccc([N+](=O)[O-])c(C(F)(F)F)c2)CC1 [Example 57, 1-[4-(4-nitro-3-trifluoromethyl-phenylamino)-piperidin-1-yl]-3-[4-(4-trifluoromethyl-benzyloxy)-piperidin-1-yl]-propan-1-one] | 85% | 84% | < 1 µM | < 7 µM | < 1 µM | – | – |
| O=C(CCCN1CCN(c2ccc(C(F)(F)F)cc2)CC1)N1CCC(Nc2ccc(OC(F)(F)F)cc2)CC1 [Example 54, 1-[4-(4-trifluoromethoxy-phenylamino)-piperidin-1-yl]-4-[4-(4-trifluoromethyl-phenyl)-piperazin-1-yl]-butan-1-one] | 95% | 58% | < 1 µM | < 7 µM | < 1 µM | – | – |
| CC(C)(C)c1ccc(N2CCN(CCC(=O)N3CCC(Nc4ccc(C#N)c(C(F)(F)F)c4)CC3)CC2)cc1 [Example 324] | 89% | 90% | – | – | < 1 µM | – | – |
| O=C(CCCN1CCN(c2ccc(C(F)(F)F)cc2)CC1)NC1CCN(c2ccc([N+](=O)[O-])c(C(F)(F)F)c2)CC1 [Example 73, N-[1-(4-nitro-3-trifluoromethyl-phenyl)-piperidin-4-yl]-4-[4-(4-trifluoromethyl-phenyl)-piperazin-1-yl]-butyramide] | – | – | – | – | – | < 1 µM | inhibition in vivo at 10 mg/kg (Haemonchus contortus; [5]): 54%; inhibition in vivo at 10 mg/kg (Haemonchus contortus; [6]): 63%; minimal effective concentration [1, 7]: < 1 µM; minimal effective concentration [1, 8]: < 7 µM |
| Cn1nnc(-c2ccc(NC3CCN(C(=O)CCCN4CCN(c5ccc(C(F)(F)F)cc5)CC4)CC3)cc2)n1 [Example 21, 1-{4-[4-(2-methyl-1H-tetrazol-5-yl)-phenylamino]-piperidin-1-yl}-4-[4-(4-trifluoromethyl-phenyl)-piperazin-1-yl]-butan-1-one] | 95% | 38% | < 1 µM | < 7 µM | < 1 µM | – | – |
| CCCc1ccc(C2CCN(CCC(=O)N3CCC(Oc4ccc([N+](=O)[O-])c(OCC)c4)CC3)CC2)cc1 [Example 579] | 96% | 96% | – | – | < 1 µM | – | – |
| CC(C)(C)c1ccc(C2CCN(CCC(=O)N3CCC(Nc4ccc([N+](=O)[O-])c(C(F)(F)F)c4)CC3)CC2)cc1 [Example 367] | – | – | – | – | – | < 1 µM | inhibition in vivo at 50 mg/kg (Haemonchus contortus; [10]): 73%; inhibition in vivo at 50 mg/kg (Haemonchus contortus; [11]): 45% |
| N#Cc1cccc(NC2CCN(C(=O)CCCN3CCN(c4ccc(C(F)(F)F)cc4)CC3)CC2)c1 [Example 7, 3-(1-{4-[4-(4-trifluoromethyl-phenyl)-piperazin-1-yl]-butyryl}-piperidin-4-ylamino)-benzonitrile] | 99% | 98% | < 1 µM | < 7 µM | < 1 µM | – | – |
| O=C(CCCN1CCN(c2ccc(C(F)(F)F)cc2)CC1)N1CCC(Nc2ccc(C(F)(F)F)cn2)CC1 [Example 51, 4-[4-(4-trifluoromethyl-phenyl)-piperazin-1-yl]-1-[4-(5-trifluoromethyl-pyridin-2-ylamino)-piperidin-1-yl]-butan-1-one] | 86% | 63% | < 1 µM | < 7 µM | < 1 µM | – | – |
| CC(C)(C)c1ccc(N2CCN(CCC(=O)N3CCC(Nc4ccc([N+](=O)[O-])c(C(F)(F)F)c4)CC3)CC2)cc1 [Example 35, 3-[4-(4-tert-butyl-phenyl)-piperazin-1-yl]-1-[4-(4-nitro-3-trifluoromethyl-phenylamino)-piperidin-1-yl]-propan-1-one] | 45% | 93% | < 1 µM | < 7 µM | < 1 µM | – | – |
| O=C(CCCN1CCN(c2ccc(C(F)(F)F)cc2)CC1)NC1CCN(c2ccc(SC(F)(F)F)cc2)CC1 [Example 76, 4-[4-(4-trifluoromethyl-phenyl)-piperazin-1-yl]-N-[1-(4-trifluoromethylsulfanyl-phenyl)-piperidin-4-yl]-butyramide] | – | – | – | – | – | < 1 µM | inhibition in vivo at 10 mg/kg (Haemonchus contortus; [5]): 67%; inhibition in vivo at 10 mg/kg (Haemonchus contortus; [6]): 13%; minimal effective concentration [1, 7]: < 1 µM; minimal effective concentration [1, 8]: < 7 µM |
| CCOC(=O)c1ccc(NC2CCN(C(=O)CCN3CCN(c4ccc(C(C)(C)C)cc4)CC3)CC2)cc1 [Example 334] | – | – | – | – | – | < 1 µM | inhibition in vivo at 50 mg/kg (Haemonchus contortus; [10]): 78%; inhibition in vivo at 50 mg/kg (Haemonchus contortus; [11]): 82%; minimal effective concentration [1, 7]: < 1 µM |
| Cc1cc(NC2CCN(C(=O)CCCN3CCN(c4ccc(C(F)(F)F)cc4)CC3)CC2)ncc1[N+](=O)[O-] [Example 71, 1-[4-(4-methyl-5-nitro-pyridin-2-ylamino)-piperidin-1-yl]-4-[4-(4-trifluoromethyl-phenyl)-piperazin-1-yl]-butan-1-one] | 55% | 35% | < 1 µM | < 7 µM | < 1 µM | – | – |
| CSc1ccc(NC2CCN(C(=O)CCCN3CCN(c4ccc(C(F)(F)F)cc4)CC3)CC2)cc1C(F)(F)F [Example 5, 1-[4-(4-methylsulfanyl-3-trifluoromethyl-phenylamino)-piperidin-1-yl]-4-[4-(4-trifluoromethyl-phenyl)-piperazin-1-yl]-butan-1-one] | 87% | 99% | < 1 µM | < 7 µM | < 1 µM | – | – |
| COc1cc(NC2CCN(C(=O)CCN3CCN(c4ccc(Cl)cc4)CC3)CC2)ccc1[N+](=O)[O-] [Example 385] | – | – | – | – | – | < 1 µM | inhibition in vivo at 50 mg/kg (Haemonchus contortus; [10]): 0%; inhibition in vivo at 50 mg/kg (Haemonchus contortus; [11]): 83%; minimal effective concentration [1, 7]: < 1 µM; minimal effective concentration [1, 8]: < 7 µM |
| O=C(CCN1CCN(c2ccc(C(F)(F)F)nc2)CC1)N1CCC(Nc2ccc([N+](=O)[O-])c(C(F)(F)F)c2)CC1 [Example 126, 1-[4-(4-nitro-3-trifluoromethyl-phenylamino)-piperidin-1-yl]-3-[4-(6-trifluoromethyl-pyridin-3-yl)-piperazin-1-yl]-propan-1-one] | – | – | < 1 µM | < 7 µM | < 1 µM | – | inhibition in vivo at 10 mg/kg (Haemonchus contortus; po): 64%; inhibition in vivo at 10 mg/kg (Haemonchus contortus; sc): 86% |
| CN(C)S(=O)(=O)c1ccc(NC2CCN(C(=O)CCN3CCN(c4ccc(C(C)(C)C)cc4)CC3)CC2)cc1C(F)(F)F [Example 345] | – | – | – | – | – | < 1 µM | inhibition in vivo at 50 mg/kg (Haemonchus contortus; [10]): 76%; inhibition in vivo at 50 mg/kg (Haemonchus contortus; [11]): 61% |
| CC(C)(C)c1ccc(N2CCN(CCCC(=O)N3CCC(Nc4ccc(C#N)c(Cl)c4)CC3)CC2)cc1 [Example 322] | 67% | 73% | – | – | < 1 µM | – | – |
| O=C(CCN1CCN(c2ccc(Cl)cc2)CC1)N1CCC(Nc2ccc(S(=O)(=O)c3ccc(F)cc3)cc2)CC1 [Example 295] | – | – | – | – | – | < 1 µM | inhibition in vivo at 50 mg/kg (Haemonchus contortus; [10]): 97%; inhibition in vivo at 50 mg/kg (Haemonchus contortus; [11]): 0% |
| O=C(CCCN1CCN(c2ccc(C(F)(F)F)cc2)CC1)N1CCC(Nc2ccc(S(=O)(=O)c3ccc(F)cc3)cc2)CC1 [Example 33, 1-{4-[4-(4-fluoro-benzenesulfonyl)-phenylamino]-piperidin-1-yl}-4-[4-(4-trifluoromethyl-phenyl)-piperazin-1-yl]-butan-1-one] | 55% | 69% | < 1 µM | < 7 µM | < 1 µM | – | – |
